Experimental findings from BindingDB's records for doi:10.3109/10799899109064686 (Center For Bio-Pharmaceutical Sciences, 1991) are described below.

The target in assay [1] is Sodium-dependent serotonin transporter (Rattus norvegicus, UniProt P31652).
The target of assay [2] is D(2) dopamine receptor (Rattus norvegicus, UniProt P61169).
Assay [3] addresses T1, Adenosine receptor A1 (Bos taurus, UniProt P28190).
T1 sequence (P28190 whole entry): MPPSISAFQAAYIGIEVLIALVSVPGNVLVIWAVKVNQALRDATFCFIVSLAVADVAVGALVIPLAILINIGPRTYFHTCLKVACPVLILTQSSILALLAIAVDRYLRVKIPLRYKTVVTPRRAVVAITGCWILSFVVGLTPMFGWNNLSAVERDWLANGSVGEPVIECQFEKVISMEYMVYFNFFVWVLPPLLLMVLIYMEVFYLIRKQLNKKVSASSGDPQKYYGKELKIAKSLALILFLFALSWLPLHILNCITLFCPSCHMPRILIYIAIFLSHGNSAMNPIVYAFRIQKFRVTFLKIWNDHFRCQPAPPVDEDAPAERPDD

D(2) dopamine receptor, sequence (P61169 whole entry): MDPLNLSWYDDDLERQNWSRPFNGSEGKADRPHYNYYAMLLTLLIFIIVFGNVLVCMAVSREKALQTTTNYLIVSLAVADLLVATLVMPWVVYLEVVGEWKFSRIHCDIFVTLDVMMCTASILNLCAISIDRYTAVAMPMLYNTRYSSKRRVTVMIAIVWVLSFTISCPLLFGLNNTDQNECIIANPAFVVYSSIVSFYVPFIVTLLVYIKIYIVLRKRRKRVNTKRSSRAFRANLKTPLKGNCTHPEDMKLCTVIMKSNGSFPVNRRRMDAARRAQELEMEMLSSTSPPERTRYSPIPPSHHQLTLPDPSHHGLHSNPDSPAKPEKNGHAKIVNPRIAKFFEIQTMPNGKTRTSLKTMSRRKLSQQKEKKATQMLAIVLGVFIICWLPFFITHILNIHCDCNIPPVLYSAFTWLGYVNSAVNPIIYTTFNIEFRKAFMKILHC
Sodium-dependent serotonin transporter, sequence (P31652 whole entry): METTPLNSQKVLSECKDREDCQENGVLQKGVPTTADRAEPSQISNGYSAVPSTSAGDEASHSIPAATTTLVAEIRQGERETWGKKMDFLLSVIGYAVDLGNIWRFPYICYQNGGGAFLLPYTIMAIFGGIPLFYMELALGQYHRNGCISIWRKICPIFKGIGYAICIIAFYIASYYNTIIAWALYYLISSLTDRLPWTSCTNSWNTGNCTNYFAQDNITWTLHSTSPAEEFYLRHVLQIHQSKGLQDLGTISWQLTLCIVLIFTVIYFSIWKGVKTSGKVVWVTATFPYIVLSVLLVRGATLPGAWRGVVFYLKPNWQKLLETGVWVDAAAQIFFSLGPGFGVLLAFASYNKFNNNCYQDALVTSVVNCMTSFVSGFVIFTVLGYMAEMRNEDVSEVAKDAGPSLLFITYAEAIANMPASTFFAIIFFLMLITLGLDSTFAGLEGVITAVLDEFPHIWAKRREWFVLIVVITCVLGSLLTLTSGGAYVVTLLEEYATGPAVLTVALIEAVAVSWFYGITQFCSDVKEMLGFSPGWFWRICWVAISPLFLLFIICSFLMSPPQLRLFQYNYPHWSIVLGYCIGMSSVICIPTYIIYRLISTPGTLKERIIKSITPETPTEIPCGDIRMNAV

In general, Ki refers to a dissociation constant, usually derived from enzyme kinetics or from competition with a known ligand. `N=C(N)NC(=O)c1nc(Cl)c(N2CCCCCC2)nc1N`: the Ki in assay [1] is 7900 nM; in assay [2], above 10000 nM; in assay [3], 410 nM.

For the molecule `N=C(N)NC(=O)c1nc(Cl)c(N)nc1N` [3,5-diamino-N-carbamimidoyl-6-chloropyrazine-2-carboxamide], the Ki was above 10000 nM in assay [2] and 2000 nM in assay [3].

With `NC(=NCc1ccccc1)NC(=O)c1nc(Cl)c(N)nc1N` [NSC_108107], the inhibitory constant (Ki) in assay [1] stood at 1900 nM; in assay [2], 7600 nM; in assay [3], 650 nM.
